How the values were obtained:
[1] = tested on: TLR8 downstream proteins (p65, p-IRAK4, TRAF3, TRIF, IRF3); assay: Immunoblotting of TLR downstream signaling proteins in THP-1 cells treated with R848; assay type: cell-based, human
Experimental: Immunoblotting: THP-1 cells were seeded in 6-well plates with a density of 2×10^6 cells/well in RPMI 1640 medium supplemented with 10% FBS, 100 U/mL penicillin, 100 μg/mL streptomycin (PenStrep), 2 mM L-glutamine, and 0.05 mM 2-mercaptoethanol. THP-1 cells were treated with phorbol-12-myristate-13-acetate (PMA) (100 ng/mL) and incubated in humidified incubators containing 5% CO2 at 37° C. for 24 h. […] After incubation of 2 h, THP-1 cells were collected, nuclear protein fraction was extracted using NE-PER Nuclear and Cytoplasmic Extraction kit (Thermo Fisher Scientific). BCA assay was then used to determine protein concentration. Protein samples were loaded and run in 10% Tris-glycine SDS-PAGE, and then transferred onto a nitro-cellulose membrane (BioRad) using electroblotting. P65 (CST; 8242) (1:1000) was then used as primary antibody, and peroxidase-conjugated AffiniPure Goat Anti-Rabbit IgG (H+L) antibody (Jackson Immuno Research; 111-035-144) (1:10000) as secondary antibody, then blots were visualized using Thermo SuperSignal West Pico kit (Thermo Fisher Scientific). Lamin A/C (CST; 2032) were used as internal controls for nuclear fractions.
Next, the inventors carried out on-target validation for CU-CPT9a. […] By contrast, the expression of TRIF and IRF3 (cytoplasmic and nuclear) were only responsive to TLR4 and TLR3, independent of TLR8.

mouse TLR9 = target: T1, mouse TLR9 (Mus musculus, UniProt Q9EQU3); assay: IL-12p40 production in splenocytes from hTLR8tg/TLR7-KO mice, TLR9 agonist 1018; assay type: cell-based; details: 1018 7.1 ug/mL, 48 hours
T1 construct: endogenous in cells; host or cells: primary splenocytes from hTLR8tg/TLR7-KO mice
T1 sequence (Q9EQU3 26-1032): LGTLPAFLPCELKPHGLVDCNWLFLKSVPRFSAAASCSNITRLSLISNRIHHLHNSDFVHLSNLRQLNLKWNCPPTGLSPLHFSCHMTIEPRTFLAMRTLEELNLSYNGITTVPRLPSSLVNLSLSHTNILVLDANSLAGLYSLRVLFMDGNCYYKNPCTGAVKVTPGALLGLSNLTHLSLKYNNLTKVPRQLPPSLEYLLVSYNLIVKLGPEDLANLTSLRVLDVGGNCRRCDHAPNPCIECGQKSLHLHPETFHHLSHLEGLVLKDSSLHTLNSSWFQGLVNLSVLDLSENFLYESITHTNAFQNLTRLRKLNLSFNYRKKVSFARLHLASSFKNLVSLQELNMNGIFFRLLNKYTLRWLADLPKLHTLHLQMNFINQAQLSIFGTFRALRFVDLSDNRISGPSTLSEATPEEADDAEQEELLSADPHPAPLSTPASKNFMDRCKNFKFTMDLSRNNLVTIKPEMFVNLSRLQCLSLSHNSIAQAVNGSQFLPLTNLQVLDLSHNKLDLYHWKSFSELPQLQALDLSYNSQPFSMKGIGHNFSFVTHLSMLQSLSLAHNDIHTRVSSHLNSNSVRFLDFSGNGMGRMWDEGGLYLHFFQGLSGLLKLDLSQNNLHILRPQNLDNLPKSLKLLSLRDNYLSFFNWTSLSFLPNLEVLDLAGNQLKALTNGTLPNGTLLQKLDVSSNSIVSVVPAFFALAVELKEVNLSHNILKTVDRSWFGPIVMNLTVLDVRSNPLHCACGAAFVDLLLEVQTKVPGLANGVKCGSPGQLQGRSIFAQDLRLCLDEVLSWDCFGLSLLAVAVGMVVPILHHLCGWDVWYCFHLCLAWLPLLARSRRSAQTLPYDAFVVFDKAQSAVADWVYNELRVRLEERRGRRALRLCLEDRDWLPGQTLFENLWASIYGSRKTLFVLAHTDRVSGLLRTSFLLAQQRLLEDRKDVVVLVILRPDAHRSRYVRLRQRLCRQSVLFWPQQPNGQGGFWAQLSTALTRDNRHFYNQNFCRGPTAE
Experimental: Activity on primary mouse splenocytes: To assess TLR8 and TLR9 activity, spleens were isolated from TLR7 knock-out mice harboring a human TLR8 transgene (hTLR8tg/TLR7-KO). Splenocytes were prepared by dissociation through a cell strainer and removal of red blood cells with lysis buffer. Splenocytes were incubated with a dilution series of compounds and a constant amount of a TLR8 agonist (RNA oligonucleotide ORN8L) or a TLR9 agonist (CpG-containing phosphorothioate DNA oligonucleotide 1018). After 48 hours, culture supernatants were collected and analyzed for IL-12p40 production. Curves represent activity from a single spleen.

[2] = tested on: TNF-α production in PBMCs from an AOSD patient; assay: TNF-α level in PBMCs harvested from an AOSD patient; assay type: cell-based, human
Experimental: But there is a lack of appropriate rodent models because TLR8 is not functional in either mice or rats. Therefore, the TLR8 inhibitors of this disclosure were tested in human specimens harvested from patients with osteoarthritis (OA), rheumatoid arthritis (RA), and adult onset-Still's disease (AOSD). It is well established that TNF-α and IL-1β are key cytokines in the process of chronic joint inflammation in cartilage. Therefore, synovial cells were isolated from synovial tissue of patients who underwent joint replacement surgery due to severe OA. Previous studies have indicated these pathological tissues express both TLR7 and TLR8 with elevated production of various cytokines, contributing to extensive articular destruction and functional decline.

[3] = tested on: TNF-α production in PBMCs from RA patients; assay: TNF-α level in PBMCs harvested from RA patients; assay type: cell-based, human; details: PBMCs from RA patients and one AOSD patient; dose-dependent

activity against mouse TLR9 (mouse TLR9)	SMILES	nuclear NF-κB ([1]; 500 nM)	R848-induced elevation of downstream protein levels (p65, p-IRAK4, TRAF3) ([1]; dose-dependent, 0, 5, 50, 500 nM, 2 h)	TNF-α level in PBMCs from an AOSD patient [2]	TNF-α level in patient PBMCs [3]
no activity	COc1ccc2c(-c3ccc(O)c(C)c3)ccnc2c1 [Compound 11a, 2-Methyl-4-(7-methoxyl-4-quinolinyl)-phenol]	significant reduction	reversed	dose-dependent suppression	significantly suppressed
no activity	Cc1cc(-c2ccnc3cc(O)ccc23)ccc1O [Compound 11b, 2-Methyl-4-(7-hydroxyl-4-quinolinyl)-phenol]				

Source: US11466010B2, “Toll-like receptor 8 (TLR8) specific antagonists and methods of making and uses thereof” (The Regents of the University of Colorado, a body corporate, priority 2017, dated 2022)
